One may read the IC50 as the point on the concentration scale where inhibition reaches its midpoint. High values mean a need for much substance, low ones inhibition by little substance.

The experiment deals with T1, human TLR9 (Homo sapiens, UniProt Q9NR96).
T1 sequence (Q9NR96 26-1032): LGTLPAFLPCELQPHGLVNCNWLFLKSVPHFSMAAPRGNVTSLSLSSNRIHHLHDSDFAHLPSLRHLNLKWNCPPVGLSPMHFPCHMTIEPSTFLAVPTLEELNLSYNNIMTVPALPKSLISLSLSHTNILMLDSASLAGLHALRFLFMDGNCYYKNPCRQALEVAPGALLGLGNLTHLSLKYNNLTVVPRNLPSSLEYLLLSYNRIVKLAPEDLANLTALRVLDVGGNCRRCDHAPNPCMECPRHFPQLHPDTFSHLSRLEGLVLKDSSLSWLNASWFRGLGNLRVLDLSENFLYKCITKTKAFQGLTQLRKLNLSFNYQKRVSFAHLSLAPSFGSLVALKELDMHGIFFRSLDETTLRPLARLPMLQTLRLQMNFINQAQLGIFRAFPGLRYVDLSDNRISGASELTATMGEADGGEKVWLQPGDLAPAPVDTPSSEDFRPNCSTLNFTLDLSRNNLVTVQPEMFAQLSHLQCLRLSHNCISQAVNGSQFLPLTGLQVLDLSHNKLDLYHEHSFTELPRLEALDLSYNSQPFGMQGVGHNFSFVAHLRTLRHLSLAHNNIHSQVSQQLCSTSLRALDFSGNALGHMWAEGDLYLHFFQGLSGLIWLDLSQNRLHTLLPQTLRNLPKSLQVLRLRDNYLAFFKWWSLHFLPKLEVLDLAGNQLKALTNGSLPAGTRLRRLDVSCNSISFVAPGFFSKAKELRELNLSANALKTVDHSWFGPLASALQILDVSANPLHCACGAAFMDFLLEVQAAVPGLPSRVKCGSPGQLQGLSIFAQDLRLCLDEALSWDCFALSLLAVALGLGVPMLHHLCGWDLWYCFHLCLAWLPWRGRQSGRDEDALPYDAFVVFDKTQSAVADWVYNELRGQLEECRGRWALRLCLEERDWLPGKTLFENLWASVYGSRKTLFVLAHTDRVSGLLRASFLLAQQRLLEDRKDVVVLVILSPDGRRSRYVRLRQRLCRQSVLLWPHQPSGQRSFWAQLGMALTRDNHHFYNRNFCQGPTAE
In words: HEK293-Blue-hTLR-9 cells assay (SEAP reporter, ODN2006 stimulation). In kind it is cell-based. Conditions: HEK293-Blue-hTLR9 cells, ODN2006 ligand, 20 h incubation. How it is done:
The following tests were carried out in order to determine the activity of the compounds of formula (I) in HEK293-Blue-hTLR-7/8/9 cells assay.
HEK293-Blue-hTLR-9 Cells Assay:
A stable HEK293-Blue-hTLR-9 cell line was purchased from InvivoGen (Cat. #: hkb-htlr9, San Diego, Calif., USA). These cells were originally designed for studying the stimulation of human TLR9 by monitoring the activation of NF-κB. A SEAP (secreted embryonic alkaline phosphatase) reporter gene was placed under the control of the IFN-β minimal promoter fused to five NF-κB and AP-1-binding sites. The SEAP was induced by activating NF-κB and AP-1 via stimulating HEK-Blue hTLR9 cells with TLR9 ligands. Therefore the reporter expression was declined by TLR9 antagonist under the stimulation of a ligand, such as ODN2006 (Cat. #: tlrl-2006-1, Invivogen, San Diego, Calif., USA), for incubation of 20 h. The cell culture supernatant SEAP reporter activity was determined using QUANTI-Blue™ kit (Cat. #: rep-qb1, Invivogen, San Diego, Calif., USA) at a wavelength of 640 nm, a detection medium that turns purple or blue in the presence of alkaline phosphatase.
HEK293-Blue-hTLR9 cells were incubated at a density of 250,000˜450,000 cells/mL in a volume of 170 μL in a 96-well plate in Dulbecco's Modified Eagle's medium (DMEM) containing 4.5 g/L glucose, 50 U/mL penicillin, […], 2 mM L-glutamine, 10% (v/v) heat-inactivated fetal bovine serum with addition of 20 μL test compound in a serial dilution in the presence of final DMSO at 1% and 10 μL of 20 uM ODN2006 in above DMEM, perform incubation under 37° C. in a CO2 incubator for 20 h. Then 20 μL of the supernatant from each well was incubated with 180 μL Quanti-blue substrate solution at 37° C. for 2 h and the absorbance was read at 620˜655 nm using a spectrophotometer. The signalling pathway that TLR9 activation leads to downstream NF-κB activation has been widely accepted, and therefore similar reporter assay was modified for evaluating TLR9 antagonist.
Take `C[C@@H]1CN(c2ccc(C#N)c3ncccc23)C[C@H](C2=Nc3cccc(N4CCNCC4)c3CN2)O1` [Example 6, 5-[(2R,6R)-2-methyl-6-(5-piperazin-1-yl-3,4-dihydroquinazolin-2-yl)morpholin-4-yl]quinoline-8-carbonitrile]: the midpoint of inhibition, the IC50, lay at 50 nM. For `C[C@@H]1CN(c2ccc(C#N)c3ncccc23)C[C@H](C2=Nc3ccc(N4CCNCC4)cc3CN2)O1` [Example 7, 5-[(2R,6R)-2-methyl-6-(6-piperazin-1-yl-3,4-dihydroquinazolin-2-yl)morpholin-4-yl]quinoline-8-carbonitrile] the value was 102 nM; for `C[C@@H]1CN(c2ccc(C#N)c3ncccc23)C[C@H](C2=Nc3cc(N4CCNCC4)ccc3CN2)O1` [Example 8, 5-[(2R,6R)-2-methyl-6-(7-piperazin-1-yl-3,4-dihydroquinazolin-2-yl)morpholin-4-yl]quinoline-8-carbonitrile], 65 nM. Take `C[C@@H]1CN(c2ccc(C#N)c3ncccc23)C[C@H](C2=Nc3c(cccc3N3CCNCC3)CN2)O1` [Example 9, 5-[(2R,6R)-2-methyl-6-(8-piperazin-1-yl-3,4-dihydroquinazolin-2-yl)morpholin-4-yl]quinoline-8-carbonitrile]: the IC50 is 97 nM. `C[C@@H]1CN(c2ccc(C#N)c3ncccc23)C[C@H](C2=Nc3cccc(N4CCN(C)CC4)c3CN2)O1` [Example 12, 5-[(2R,6R)-2-methyl-6-[5-(4-methylpiperazin-1-yl)-3,4-dihydroquinazolin-2-yl]morpholin-4-yl]quinoline-8-carbonitrile] came in with an IC50 of 42 nM. The same measure for `C[C@@H]1CN(c2ccc(C#N)c3ncccc23)C[C@H](C2=Nc3cccc(N4CCC5(CCNC5)C4)c3CN2)O1` (stereo partly drawn) [Example 13, 5-[(2R,6R)-2-[5-(2,7-diazaspiro[4.4]nonan-2-yl)-3,4-dihydroquinazolin-2-yl]-6-methyl-morpholin-4-yl]quinoline-8-carbonitrile]: 313 nM; for `C[C@@H]1CN(c2ccc(C#N)c3ncccc23)C[C@H](C2=Nc3cccc(C4=CCNCC4)c3CCN2)O1` [Example 16, 5-[(2R,6R)-2-methyl-6-[6-(1,2,3,6-tetrahydropyridin-4-yl)-4,5-dihydro-3H-1,3-benzodiazepin-2-yl]morpholin-4-yl]quinoline-8-carbonitrile]: 64 nM; for `C[C@@H]1CN(c2ccc(C#N)c3ncccc23)C[C@H](C2=Nc3ccc(N4CCNCC4)cc3CCN2)O1` [Example 17, 5-[(2R,6R)-2-methyl-6-(7-piperazin-1-yl-4,5-dihydro-3H-1,3-benzodiazepin-2-yl)morpholin-4-yl]quinoline-8-carbonitrile]: 49 nM. The same measure for `C[C@@H]1CN(c2ccc(C#N)c3ncccc23)C[C@H](C2=Nc3cccc(C4CCNCC4)c3CN2)O1` [Example 18, 5-[(2R,6R)-2-methyl-6-[5-(4-piperidyl)-3,4-dihydroquinazolin-2-yl]morpholin-4-yl]quinoline-8-carbonitrile]: 90 nM.

These data come from patent US11548884B2, “Cyclic amidine compounds for the treatment of autoimmune disease” (Hoffmann-La Roche Inc., priority 2018, dated 2023).
